# ChEMBL document CHEMBL5303304, “EUbOPEN Chemogenomics Library - IncuCyte” (2023)
# “And” between values parts separate entries of the source, which are not always exact repeats. Equal values may be shown once.
# Key:
# Type in all cases: toxicity, cell-based
# Fibroblast = assay: Incucyte cell viability with human fibroblast; conditions: 10 µM, compound concentration 10 uM
# U2OS = assay: Incucyte cell viability with U2OS; conditions: human, 10 µM, compound concentration 10 uM
# HEK-293T = assay: Incucyte cell viability with HEK293T; conditions: human, 10 µM, compound concentration 10 uM
# Further: unitless GR value; below 1 slowed growth and below 0 cell loss.
SMILES,"Growth Rate (Fibroblast; 6 h, replicate number 2)","Growth Rate (Fibroblast; 12 h, replicate number 1)","Growth Rate (Fibroblast; 12 h, replicate number 2)","Growth Rate (Fibroblast; 24 h, replicate number 1)","Growth Rate (Fibroblast; 24 h, replicate number 2)","Growth Rate (U2OS; 12 h, replicate number 1)","Growth Rate (U2OS; 18 h, replicate number 1)","Growth Rate (U2OS; 18 h, replicate number 2)","Growth Rate (U2OS; 24 h, replicate number 1)","Growth Rate (U2OS; 24 h, replicate number 2)","Growth Rate (HEK-293T; 6 h, replicate number 1)","Growth Rate (HEK-293T; 6 h, replicate number 2)","Growth Rate (HEK-293T; 12 h, replicate number 1)","Growth Rate (HEK-293T; 12 h, replicate number 2)","Growth Rate (HEK-293T; 18 h, replicate number 1)","Growth Rate (HEK-293T; 18 h, replicate number 2)","Growth Rate (HEK-293T; 24 h, replicate number 1)","Growth Rate (HEK-293T; 24 h, replicate number 2)","Growth Rate (U2OS; 6 h, replicate number 2)","Growth Rate (U2OS; 12 h, replicate number 2)",also measured
Cc1cccc(CC(=O)N2CCc3c2ccc(-c2cn(C)c4ncnc(N)c24)c3F)n1,0.98,0.46,0.94,0.52,0.58,0.43,0.31,0.97,0.59,0.71,0.02,0.26,0.24,0.53,0.4,0.55,0.46,0.57,,,"Growth Rate (Fibroblast; 6 h, replicate number 1): 0.64; Growth Rate (Fibroblast; 18 h, replicate number 1): 0.46; Growth Rate (Fibroblast; 18 h, replicate number 2): 0.69; Growth Rate (U2OS; 6 h, replicate number 1): -0.61"
CC(C)(C)S(=O)(=O)c1ccc2nccc(Nc3n[nH]c4ccc(F)cc34)c2c1,0.54,0.85,0.34,0.45,0.22,0.21,0.1,-0.02,0.06,-0.07,-0.03,-0.05,-0.18,-0.13,-0.12,-0.14,-0.13,-0.15,0.2,0.12,"Growth Rate (Fibroblast; 18 h, replicate number 1): 0.67; Growth Rate (Fibroblast; 18 h, replicate number 2): 0.31; Growth Rate (U2OS; 0 h, replicate number 1): -0.83; Growth Rate (U2OS; 6 h, replicate number 1): 0.95"
COc1ncc(-c2cc(-c3ncc(CN4C[C@@H](C)O[C@@H](C)C4)o3)c3cn[nH]c3c2)cc1NS(C)(=O)=O,-0.56,-0.39,-0.16,-0.03,0.3,0.56,0.72,0.21,0.82,0.36,-0.44,-0.64,-0.15,-0.32,-0.01,-0.2,0.05,-0.11,-0.02,0.02,"Growth Rate (Fibroblast; 6 h, replicate number 1): -0.74; Growth Rate (Fibroblast; 18 h, replicate number 1): -0.21; Growth Rate (Fibroblast; 18 h, replicate number 2): 0.05; Growth Rate (U2OS; 0 h, replicate number 2): -0.39; Growth Rate (U2OS; 6 h, replicate number 1): -0.31"
CCN(C)S(=O)(=O)Nc1cccc(-c2ccc3c(NC(=O)C4CC4)n[nH]c3c2)c1,-0.37,-0.17,-0.25,0.13,-0.03,-0.32,-0.12,0.1,0.11,0.17,-0.21,-0.69,-0.1,-0.46,-0.03,-0.33,0,-0.21,-0.06,0.08,"Growth Rate (Fibroblast; 6 h, replicate number 1): -0.58; Growth Rate (Fibroblast; 18 h, replicate number 1): -0.01; Growth Rate (Fibroblast; 18 h, replicate number 2): -0.16; Growth Rate (U2OS; 0 h, replicate number 2): -0.42; Growth Rate (U2OS; 6 h, replicate number 1): -0.66"
CNc1nc(Nc2ccc(C(=O)N3CCOCC3)cc2OC)nc2[nH]cc(Cl)c12,,,,,,,,,,,0.03,-0.31,0.06,-0.05,0.26,0.08,0.27,0.24,,0.5,"Growth Rate (Fibroblast; 0 h, replicate number 1): -0.95; Growth Rate (Fibroblast; 0 h, replicate number 2): -0.43; Growth Rate (U2OS; 0 h, replicate number 1): -0.99"
COc1cc(-c2cncc(-c3cnn(C4CCNCC4)c3)c2)cc(OC)c1OC,0.74,,0.97,0.86,0.9,,,0.99,,0.94,0.84,0.78,,0.82,,0.73,,0.77,0.55,,"Growth Rate (Fibroblast; 0 h, replicate number 1): 0.47; Growth Rate (U2OS; 0 h, replicate number 1): -1"
CC(C)C(=O)N[C@@H]1CCN(C(=O)Nc2nc3c(s2)-c2nc(-c4ccccc4Cl)ncc2CC3)C1,,,,,,0.94,0.91,0.77,0.88,0.69,0.21,-0.05,0.16,-0.08,0.29,0.03,0.37,0.15,,0.9,"Growth Rate (Fibroblast; 0 h, replicate number 1): -0.95"
CN1C(=O)c2ccccc2N(C)c2nc(Nc3cnn(C4CCNCC4)c3)ncc21,,,0.94,,0.43,0.07,0.07,0.23,0.15,0.24,-0.59,-0.85,-0.25,-0.41,0.19,-0.15,0.37,0.07,0.15,0.18,"Growth Rate (Fibroblast; 0 h, replicate number 1): -0.99; Growth Rate (Fibroblast; 0 h, replicate number 2): -0.07; Growth Rate (Fibroblast; 18 h, replicate number 2): 0.43; Growth Rate (U2OS; 0 h, replicate number 2): 0.12; Growth Rate (U2OS; 6 h, replicate number 1): -0.35"
COc1cc2nc(-c3cc(F)ccc3O)nc(N[C@@H]3CNC[C@H]3C(C)(C)O)c2cc1OC.Cl.Cl,-1,,,0.06,,-0.39 and -0.54,-0.4 and -0.47,-0.37 and -0.32,-0.35 and -0.37,-0.34 and -0.27,-0.41 and -0.9,-0.53,-0.39 and -0.88,-0.5 and -0.73,-0.28 and -0.69,-0.42 and -0.53,-0.23 and -0.61,-0.33 and -0.39,,-0.46 and -0.33,"Growth Rate (Fibroblast; 0 h, replicate number 1): -1; Growth Rate (Fibroblast; 0 h, replicate number 2): 0.21; Growth Rate (Fibroblast; 6 h, replicate number 1): -0.98; Growth Rate (Fibroblast; 18 h, replicate number 1): 0.18; Growth Rate (U2OS; 0 h, replicate number 1): -0.66"
Nc1ncnc2[nH]c(-c3ccccc3)nc12,0.95,0.88,0.9,,,,,0.95,,,0.83,0.23,0.87,0.55,0.8,0.68,0.85,0.78,0.92,0.9,"Growth Rate (Fibroblast; 0 h, replicate number 2): 0.44; Growth Rate (U2OS; 0 h, replicate number 1): -1; Growth Rate (U2OS; 0 h, replicate number 2): 0.55"
